Data on six compounds can be found in patent publication US20090172831A1, “Methods for the production of plants resistant to HPPD herbicides” (Syngenta Limited, priority 2000, published 2009).

Read-outs that look alike come from different tables or passages of the source.

One assay has as its target Wheat HPPD (Triticum aestivum, UniProt A0A3B6NLC6). The assay can be described thus: Dissociation of enzyme/inhibitor complexes by exchange with 14C-labelled inhibitor (koff; Kd = koff/kon). The format is binding. Conditions: for koff: − glycerol. The source says:
(§1) Herbicidal inhibitors of HPPD are found here to have generally low values of koff (in the range less than 0.0003 s^−1, often less than 0.000001 s^−1). It will be appreciated that many suitable methods known in the art for determining such low koff values are suitable for working the current invention. These include measuring rates of exchange of radio or otherwise labelled inhibitors either with or away from the enzyme inhibitor complex. For example enzyme inhibitor complexes can readily be prepared by incubating HPPD preparations with labelled or unlabelled inhibitor and then, after suitable periods, optionally rapidly separating the thus formed enzyme inhibitor complex from excess inhibitor by any suitable method such as ultrafiltration, binding to filters or exchange down a gel filtration column. Exchange reactions with the, thus prepared enzyme inhibitor complex is then initiated by addition of, as appropriate, excess labelled or unlabelled inhibitor. HPPD preparations suitable for use in the methods of the current invention are relatively unpurified, buffer-exchanged, supernatant fractions of spun crude lysates of E. coli strains engineered to express the HPPD enzyme of interest at a level of, typically, about 0.25-10% of the total soluble protein. Many methods such as radiometric, fluorimetric, NMR, fluorescence depolarisation, EPR, Mossbauer, UV/VIS spectrophotometry etc. or phonon resonance can, in principle, be used to monitor the enzyme/ligand exchange reactions and, particularly in this case where the enzyme contains an iron atom at the ligand binding site. Optionally, the monitoring method may be continuous (as, for example, with scintillation proximity/bead-based methods) or, discontinuous, based upon collection of data at various timepoints wherein samples are removed and the bound and unbound label components rapidly separated and quantitated.
(§2) Values of koff can suitably be calculated by computer fitting based upon is numerical integration of the exchange data along with information on the active-site concentration of HPPD and upon kon values obtained as described below. […] In any event, koff values are always here calculated from the rate of the major slow exchange reaction. It will be appreciated that within the scope of the current invention many methods of making the desired kinetic comparisons are possible without explicit or rigorous determination of off rates but, based upon the same underlying principle, will achieve the same selection result.
The dissociation rates (off rates) of inhibitors selected from Formula 1 and/or 2 and/or 3 and/or 4 from the complexes that they form with test and control HPPD enzymes are suitably measured in a number of ways. Thus, for example, the rates of dissociation of mesotrione, a compound selected from Formula 1 and of the diketonitrile of isoxaflutole, a compound selected from Formula 3 from their respective complexes with, test, wheat HPPD and with, control, Arabidopsis HPPD are compared. The method and results from a typical test are as follows.
^14C mesotrione is of specific activity 1.12 GBq/mmol. This is ˜95% pure radiochemically by TLC and based upon the proportion of material tight-binding to HPPD. Arabidopsis and, (test), wheat HPPD are each diluted to a concentration of ˜0.45 and 0.54 μM, respectively into 1.6 ml of 50 mM Bis-Tris propane buffer at pH 7.0 containing 25% glycerol, 25 mM sodium ascorbate and 3 mg/l of bovine catalase (Sigma C3155˜50,000 units/mg) containing […] ^14C mesotrione and left to react at 25 C for 2.5-3 h. Following this initial binding reaction, exchange reactions are initiated by addition of cold mesotrione to a final concentration of 60 μM and 200 μl aliquots removed at various times to rapid chromatography down a NAP5 gel filtration column equilibrated in 50 mM BTP at pH 7 containing 0.1 M KCl, separation into fractions containing protein-bound or free radiolabel and liquid scintillation counting. […]

The target in assay [1] is T1, Arabidopsis HPPD (Arabidopsis thaliana, UniProt P93836).
T1 construct: made in house; host or cells: E. coli BL21 (DE3) codon+ RP
T1 sequence (P93836 1-445): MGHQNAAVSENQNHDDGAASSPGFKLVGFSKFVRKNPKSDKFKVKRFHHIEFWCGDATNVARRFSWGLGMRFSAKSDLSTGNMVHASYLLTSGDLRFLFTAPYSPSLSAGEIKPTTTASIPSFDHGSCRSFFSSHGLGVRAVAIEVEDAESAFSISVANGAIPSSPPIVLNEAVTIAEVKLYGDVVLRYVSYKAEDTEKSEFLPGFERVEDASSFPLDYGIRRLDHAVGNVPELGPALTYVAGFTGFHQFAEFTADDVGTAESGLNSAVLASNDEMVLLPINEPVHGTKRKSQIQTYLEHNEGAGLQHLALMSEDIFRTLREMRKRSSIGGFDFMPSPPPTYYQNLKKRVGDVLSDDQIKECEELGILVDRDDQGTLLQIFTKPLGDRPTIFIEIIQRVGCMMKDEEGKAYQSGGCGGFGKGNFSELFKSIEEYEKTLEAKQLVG
Described as above. The format is binding. Conditions: for koff: − glycerol. The procedure:
as §1, with “It” for “Herbicidal inhibitors of HPPD are found here to have generally low values of koff (in the range less than 0.0003 s^−1, often less than 0.000001 s^−1). It”, “HPPD preparations suitable for use in the methods of the current invention are relatively unpurified, buffer-exchanged, supernatant fractions of spun crude lysates of E. coli strains engineered to express the HPPD enzyme of interest at a level of, typically, about 0.25-10% of the total soluble protein.” left out
Values of koff can suitably be calculated by computer fitting based upon is numerical integration of the exchange data along with information on the active-site concentration of HPPD and upon kon values obtained as described below. […] In any event, koff values are always here calculated from the rate of the major slow exchange reaction.
^14C mesotrione is of specific activity 1.12 GBq/mmol. […] Following this initial binding reaction, exchange reactions are initiated by addition of cold mesotrione to a final concentration of 60 μM and 200 μl aliquots removed at various times to rapid chromatography down a NAP5 gel filtration column equilibrated in 50 mM BTP at pH 7 containing 0.1 M KCl, separation into fractions containing protein-bound or free radiolabel and liquid scintillation counting.
Nevertheless, here, for practical purposes, koff values are always here calculated from the rate of the major slow exchange reaction.
Not all test inhibitors are readily available in a radiolabelled form.

Assay [2] has as its target T1, Arabidopsis HPPD. The assay can be described thus: Inhibition of HPPD (E. coli extract) after pre-incubation with inhibitor. The format is biochemical. Conditions: read-out: inhibition (relative to controls). Here is the method: (§3) Qualitative measurements of the differences in Kd values in respect of different HPPD inhibitors are obtained by pre-incubating enzyme with inhibitor and, then, subsequently, measuring the % inhibition. For example HPPD is isolated from maize seedlings, part purified and assayed by similar methods to those described by Schulz et al 1993 (FEBS LETS. 318, 162-166) and by Secor (1994) in Plant Physiol. 106, 1429-1433. Assays are run for 30 minutes and started with addition of radiolabelled hydroxyphenylpyruvate (final concentration ˜0.1-0.2 mM) following a 20-30 min period over which inhibitor is pre-incubated with the part-purified enzyme.
Using the same assay method but using HPPD from Arabidopis (obtained from E. coli cells transformed to express the Arabidopsis HPPD and prepared as an E. coli extract similar to the methods described by Garcia et al in Plant Physiol (1999) 119, 1507-1516) the following levels of inhibition (relative to controls) are observed with the following doses of herbicide versus Arabidopsis HPPD.

The target in a further assay is P. fluorescens HPPD (Pseudomonas fluorescens, UniProt A0ACG8AE61). The assay can be described thus: Dissociation of enzyme/inhibitor complexes by exchange with 14C-labelled inhibitor (koff; Kd = koff/kon). The class given is binding.
From the text: as §1
as §2, with “result. […]” for “result.”
Not all test inhibitors are readily available in a radiolabelled form. A more general method of measuring off rates is to first form the complex with unlabelled test inhibitor, to rapidly exchange the complex free of excess unlabelled inhibitor and to then start the exchange reaction by addition of an excess of a standard labelled inhibitor, the kinetic properties of which are already known. The reaction is then monitored and the relative proportions of bound and unbound label determined at various times. […] The latter is the method of choice when the rate of exchange is fast (t½<3 h).
In, variants of the above methods, off rates are measured either in the presence or absence of ˜25% v/v glycerol. In the presence of glycerol values obtained are generally ˜1.5-3× slower than in its absence although sometimes the change is outside this range or, even, in the other direction. Further examples of data obtained are depicted in the following Table 3.
Crude Extracts of recombinant E. coli strains expressing, in the one case, a control HPPD (from Arabidopsis) and, in the other, one or more test HPPD sequences are prepared as described in the preceding example. The titre of active sites and enzyme activity are also defined and measured as described in the preceding examples. […]

The subject of the next assay is maize HPPD. As to the kind of experiment: Inhibition of part purified HPPD after pre-incubation with inhibitor. The format is biochemical. Here is the method: as §3
The following levels of inhibition (relative to controls) are observed with the following doses of herbicide versus maize HPPD

Setting [3] is: value obtained + glycerol (in parentheses), read-out: Kd.
[4] abbreviates: without glycerol, Kd = koff/kon, read-out: Kd.
[5] abbreviates: Kd, without glycerol, Kd = koff/kon.

Sequence of P. fluorescens HPPD (A0ACG8AE61 entry or part of it): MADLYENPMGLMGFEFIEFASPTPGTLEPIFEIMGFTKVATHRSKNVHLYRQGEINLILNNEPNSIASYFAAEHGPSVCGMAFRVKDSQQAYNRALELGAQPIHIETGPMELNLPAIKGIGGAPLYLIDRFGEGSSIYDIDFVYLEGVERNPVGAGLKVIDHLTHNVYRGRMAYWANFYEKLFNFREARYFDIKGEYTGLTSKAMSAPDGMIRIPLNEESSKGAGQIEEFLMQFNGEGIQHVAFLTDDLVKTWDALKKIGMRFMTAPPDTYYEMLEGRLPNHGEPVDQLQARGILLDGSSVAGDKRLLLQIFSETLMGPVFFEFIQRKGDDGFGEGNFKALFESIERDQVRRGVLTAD
Sequence of Wheat HPPD (A0A3B6NLC6 entry or part of it): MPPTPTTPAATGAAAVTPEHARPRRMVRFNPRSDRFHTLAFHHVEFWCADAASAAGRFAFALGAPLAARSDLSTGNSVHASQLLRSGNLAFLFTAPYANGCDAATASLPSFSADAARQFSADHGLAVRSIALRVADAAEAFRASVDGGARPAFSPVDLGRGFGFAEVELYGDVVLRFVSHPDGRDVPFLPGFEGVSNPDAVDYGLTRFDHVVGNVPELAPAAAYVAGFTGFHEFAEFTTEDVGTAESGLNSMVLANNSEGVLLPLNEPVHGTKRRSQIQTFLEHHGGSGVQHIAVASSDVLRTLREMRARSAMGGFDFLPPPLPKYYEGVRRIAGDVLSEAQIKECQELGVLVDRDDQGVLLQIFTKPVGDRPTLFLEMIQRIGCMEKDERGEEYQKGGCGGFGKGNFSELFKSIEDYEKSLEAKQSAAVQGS

In the case of `CCOCc1nc(C(F)(F)F)ccc1C(=O)C1C(=O)C2CCC(C2)C1=O` (stereo not shown) [Structure III, 3-[[2-(ethoxymethyl)-6-(trifluoromethyl)-3-pyridinyl]carbonyl]-bicyclo[3.2.1]-octane-2,4-dione], the koff (as a rule, a measure of how fast the partners let go of each other) at Wheat HPPD (read-out: koff) was above 0.0002 s⁻¹; at Arabidopsis HPPD [1], 1.1e-05 s⁻¹.
In the case of `CS(=O)(=O)c1cc(C(F)(F)F)ccc1C(=O)C(C#N)C(=O)C1CC1` (stereo not shown) [Structure IV, 1-[2-(methanesulfonyl)-4-(trifluoromethyl)phenyl]-3-cyclopropyl-2-cyano-propane-1,3-dione, reference compound], the inhibition (in general, the share of the control response that was lost under treatment) at 0.001 µM on Arabidopsis HPPD [2] (1 nM) was 20%. Also, the inhibition at 0.01 µM at Arabidopsis HPPD [2] (10 nM) amounted to 90%. Further, the inhibition at 0.1 µM at Arabidopsis HPPD [2] (100 nM) was determined as 95%. In addition, the inhibition at 1 µM on Arabidopsis HPPD [2] (1000 nM) was 95%. The Kd – broadly, the concentration at which binding is half-saturated – on Wheat HPPD (setting [3]) turned out to be 0.596 nM; at Wheat HPPD (setting [4]), 0.885 nM; at P. fluorescens HPPD (in water at pH 7.0 and at 25 C, read-out: dissociation constant (Kd)) it was 12.2 nM; at P. fluorescens HPPD (setting [3]) it was 1.1 nM; at P. fluorescens HPPD (setting [4]) it was 12.2 nM.
With `Cc1cc(C#N)ccc1C(=O)C1C(=O)C(C)(C)C(=O)C(C)(C)C1=O` [Structure VI, 2-[2-methyl-4-cyanobenzoyl]-4,4,6,6-tetramethylcyclohexane-1,3,5-trione], the dissociation constant Kd on Wheat HPPD (setting [5]) was 0.45 nM; on Arabidopsis HPPD [1], 0.025 nM; on P. fluorescens HPPD (setting [4]), above 20 nM.
For the compound `Cc1nc(C(F)(F)F)ccc1C(=O)C1C(=O)C(C)(C)C(=O)C(C)(C)C1=O` [Structure VII, 3-[[2-methyl-6-(trifluoromethyl)-3-pyridinyl]carbonyl]-4,4,6,6-tetramethylcyclohexane-1,3,5-trione], the equilibrium dissociation constant (Kd) at Wheat HPPD (setting [5]) was 0.175 nM; on Arabidopsis HPPD [1], 0.032 nM. Besides, the results for the koff on Wheat HPPD, at Arabidopsis HPPD [1] and at P. fluorescens HPPD (− glycerol) were 8.3e-06 s⁻¹, 1e-06 s⁻¹ and above 0.0003 s⁻¹, respectively.
With `CCC1CC(=O)C(C(=O)C2CC2)C(=O)C1(C)S(C)(=O)=O` (stereo not shown) [Structure VIII, 2-[cyclopropylcarbonyl]-5-ethyl-4-methanesulfonyl-4-methylcyclohexane-1,3-dione], the “strength of inhibition” value on Arabidopsis HPPD [1] (used for pre-incubation in control experiments) was “weak inhibitor”.
With `CS(=O)(=O)c1ccc(C(=O)C2C(=O)CCCC2=O)c(Cl)c1` [sulcotrione, 2-(2-Chloro-4-methanesulphonylbenzoyl)-cyclohexane-1,3-dione], the “fold less active against the maize enzyme than structure IV” value with maize HPPD is around 100 fold. Further, the “inhibition (relative to controls)” value with maize HPPD (10 nM) is given as 8%. Besides, the “inhibition (relative to controls)” value with maize HPPD (100 nM) is 51%. The “inhibition (relative to controls)” value in the assay on maize HPPD (1000 nM) came to 83%. At Arabidopsis HPPD [2], the inhibition at 0.001 µM was 57%, the inhibition at 0.01 µM is 96%, the inhibition at 0.1 µM is 100% and the inhibition at 1 µM is 100%.
